In one experiment the target is T1, EBNA1 (468–607) (Epstein-Barr virus, UniProt P03211).
T1 construct: using purified EBNA1 (468–607) mixed in a 2 μl:2 μl ratio with reservoir solution; made in house
The experiment in a line: X-ray crystallography, fragment soaked into preformed EBNA1 crystals. The conditions noted are these: crystal soak 4 h; 1.3 Å structure, PDB 6VH6; pocket that contacts the DNA phosphate backbone. The class given is binding, Epstein–Barr virus (EBV). The source says: We determined the high-resolution crystal structure of one fragment bound to EBNA1 (Figure 4). We soaked the fragment AC37287 into preformed crystals of EBNA1 (468–607). The crystal of AC37287 diffracted to 1.3 Ångstroms and was solved by isomorphous replacement. The electron density around AC38287 is unambiguous at this resolution (Figure 4A). The aliphatic portion of AC37287 binds into a deep hydrophobic pocket made up of the hydrophobic residues I481, L520, L582, V483 and I593 (Figure 4B). The lactone is sandwiched between residues N519 and T590 within the range of a hydrogen bond of N519 (Figure 4C). This molecule binds in a region that is important for DNA binding (Figure 4D).
Crystals were grown using the vapor diffusion method in 24–48 h using purified EBNA1 (468–607) mixed in a 2 μl:2 μl ratio with reservoir solution (50 mM MES, pH 6.5, 0–150 mM NaCl, and 10 mM DTT). Crystals were transferred to a solution containing 25–30% glycerol and 0.2 μl of 50 mM of AC37287, incubated for 4 h and flash frozen for data collection. Data were collected on the 21BM beamline at the Argonne Light Source (ALS) at Argonne National Laboratory. Data were indexed, reduced, and scaled using HKL3000. The structures were solved by isomorphous replacement. Models were refined in PHENIX, version 1.17, using simulated annealing, minimization, and individual B-factor refinement. […]

Experiment [1] deals with T2, EBNA1-CAC (EBNA1 DNA-binding domain) (Epstein-Barr virus, UniProt P03211, C531S/C560S/C591S/C598S).
T2 construct: His-tag-SUMO (N, cleaved yes); made in house; host or cells: Escherichia coli
T2 sequence (P03211 459-607 C531S/C560S/C591S/C598S): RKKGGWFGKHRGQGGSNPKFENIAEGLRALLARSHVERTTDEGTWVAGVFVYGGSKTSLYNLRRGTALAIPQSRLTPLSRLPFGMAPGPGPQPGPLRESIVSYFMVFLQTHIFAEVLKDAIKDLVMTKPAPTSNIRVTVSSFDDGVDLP
The experiment in a line: SPR affinity assay, EBNA1-CAC immobilized on CM5 chip via thiol coupling. Details: species or system Epstein–Barr virus (EBV). The conditions noted are these: Biacore S200, 1:1 interaction model, global Rmax, fragment 79-900 μM, 5% DMSO, pH 7.1. The method, then:
SPR experiments were performed on a Biacore™ S200 instrument (GE Healthcare). […] As an alternative, we developed a thiol coupling method to immobilize EBNA1 and LANA to the Biacore sensor chip. We synthesized a construct that expressed a version of EBNA1 and LANA DNA-binding domains with the internal cysteines mutated to serine and Cys-Ala-Cys added to the C terminus (EBNA1-CAC and LANA-CAC).
The 1000 fragments from the library were screened at a concentration of 1 mM (5% DMSO). Hits were selected on the basis of the following criteria: a relative binding response normalized with respect to the positive control, no indication that multiple fragments were bound, R > Rmax (R = Response units, Rmax = the maximum binding capacity based on control fragment) and sensorgram shapes consistent with fragment binding (rapid on and off rates). Based on these criteria, 94 EBNA1 fragments and 104 LANA fragments were selected for further validation to measure binding affinities, which were determined to range from 0.2 to >10 mM. […]
To validate fragments from the primary screen, an affinity assay was performed. […] Binding sensorgrams were processed by first subtracting the binding response recorded from the control surface (reference flow cell), followed by solvent correction. […] Affinities were assessed using a global Rmax determined by reference compounds. […]
On the technique in general: Surface plasmon resonance follows binding to a sensor surface in real time, without labels.

T1 sequence (P03211 468-607): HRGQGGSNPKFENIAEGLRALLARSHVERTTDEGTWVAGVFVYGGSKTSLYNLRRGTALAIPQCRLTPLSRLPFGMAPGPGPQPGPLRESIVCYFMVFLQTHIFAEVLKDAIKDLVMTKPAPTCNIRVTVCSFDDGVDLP

With `Cc1ccc2oc(=O)cc(O)c2c1` [AC37287], at EBNA1 (468–607), the “fragment binding observed in crystal structure” value is on record as “binds in this pocket of EBNA1”.
The term Kd denotes the free concentration of one partner at which half of the binding sites on the other are occupied at equilibrium, for simple one-to-one binding. A lower Kd goes with higher affinity. In experiment [1], `OCCCCn1cnc2cc(Cl)c(Cl)cc21` [SPB07625] gave a Kd of 2.1 mM. In other words, the millimolar range.
